Data on 4 molecules can be found in publication PMC10350928 (Journal of Medicinal Chemistry, 2023).

A short description of data set [1]: Rat plasma pharmacokinetics. The settings on record: male, Han Wistar, iv, 0.5 mg/kg.
For the next data set, the system named is Human hepatocytes. In words: Human hepatocyte Clint. The note with it: Table 4.
Another data set relates to Rat hepatocytes. In words: Rat hepatocyte Clint. The note with it: for RH: rat hepatocytes.
A further data set concerns P-gp (MDR1). In words: MDR1-MDCK permeability and efflux. The note with it: dog.
Data set [2] concerns the target T1, WT c-MET (Homo sapiens, UniProt P08581). The class given is biochemical. The note with it: Table 3; LLE = pIC50 – log D.
Target sequence in this assay (P08581 25-1390): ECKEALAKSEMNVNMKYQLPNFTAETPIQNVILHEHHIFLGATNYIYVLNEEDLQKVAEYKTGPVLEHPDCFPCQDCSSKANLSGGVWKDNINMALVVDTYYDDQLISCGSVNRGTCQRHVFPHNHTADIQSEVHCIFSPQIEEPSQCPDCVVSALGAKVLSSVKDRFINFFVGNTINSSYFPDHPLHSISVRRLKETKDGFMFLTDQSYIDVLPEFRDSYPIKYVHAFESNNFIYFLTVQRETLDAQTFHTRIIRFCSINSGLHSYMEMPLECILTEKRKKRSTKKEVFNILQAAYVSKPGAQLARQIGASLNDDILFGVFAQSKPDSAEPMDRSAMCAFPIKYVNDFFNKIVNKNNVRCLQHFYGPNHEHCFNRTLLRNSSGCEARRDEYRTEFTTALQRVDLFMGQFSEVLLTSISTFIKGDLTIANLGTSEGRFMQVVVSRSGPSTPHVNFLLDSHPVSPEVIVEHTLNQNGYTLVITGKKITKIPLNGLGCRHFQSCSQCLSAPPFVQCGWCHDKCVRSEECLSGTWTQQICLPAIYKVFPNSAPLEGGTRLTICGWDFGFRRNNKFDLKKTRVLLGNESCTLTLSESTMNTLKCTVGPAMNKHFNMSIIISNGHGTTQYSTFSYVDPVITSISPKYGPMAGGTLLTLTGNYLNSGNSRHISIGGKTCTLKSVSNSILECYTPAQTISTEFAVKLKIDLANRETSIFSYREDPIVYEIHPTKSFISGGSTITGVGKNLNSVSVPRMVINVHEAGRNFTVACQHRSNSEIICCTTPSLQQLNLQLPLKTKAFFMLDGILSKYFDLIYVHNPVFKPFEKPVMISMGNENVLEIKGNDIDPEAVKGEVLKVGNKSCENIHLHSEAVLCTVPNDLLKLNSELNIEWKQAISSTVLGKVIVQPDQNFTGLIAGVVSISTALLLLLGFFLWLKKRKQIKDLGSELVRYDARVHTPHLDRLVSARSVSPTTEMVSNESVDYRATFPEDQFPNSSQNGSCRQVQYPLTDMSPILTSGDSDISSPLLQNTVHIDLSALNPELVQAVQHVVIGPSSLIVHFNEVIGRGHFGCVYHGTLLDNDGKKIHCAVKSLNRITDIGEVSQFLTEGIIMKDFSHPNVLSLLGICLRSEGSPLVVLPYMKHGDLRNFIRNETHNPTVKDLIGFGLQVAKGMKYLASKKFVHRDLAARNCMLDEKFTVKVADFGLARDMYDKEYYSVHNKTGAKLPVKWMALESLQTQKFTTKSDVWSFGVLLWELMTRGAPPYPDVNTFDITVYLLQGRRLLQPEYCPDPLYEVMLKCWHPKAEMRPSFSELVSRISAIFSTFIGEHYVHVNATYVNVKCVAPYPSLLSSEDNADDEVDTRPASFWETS
For data set [3], the target named is T1, WT c-MET. The class given is binding. The note with it: adenosine 500 μM, WT c-MET 7.4 μM, compound 100 μM.
Target sequence in this assay (P08581 1038-1348): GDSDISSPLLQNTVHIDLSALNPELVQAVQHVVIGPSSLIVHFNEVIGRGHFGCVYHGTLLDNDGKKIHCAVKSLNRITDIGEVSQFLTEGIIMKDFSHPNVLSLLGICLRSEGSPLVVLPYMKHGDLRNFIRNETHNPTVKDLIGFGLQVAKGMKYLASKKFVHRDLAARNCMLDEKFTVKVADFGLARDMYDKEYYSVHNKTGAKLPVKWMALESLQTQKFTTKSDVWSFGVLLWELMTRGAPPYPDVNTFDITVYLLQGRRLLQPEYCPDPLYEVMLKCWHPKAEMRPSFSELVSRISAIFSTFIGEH
Data set [4] has as its target T1, WT c-MET. The class given is binding. The settings on record: Table 1; LLE = pKd – log D.
Target sequence in this assay (P08581 25-1390): as the sequence (P08581 25-1390) above
The next data set relates to c-MET. The settings on record: read-out: cell IC50 c-MET; cited from earlier work.
The test system of another data set is RON. The settings on record: read-out: cell IC50 RON; cited from earlier work.
Another data set in a line: Log D shake-flask method. The note with it: octanol/water, pH 7.4, logD, Table 1, octanol and water at pH7.4.

For orientation: clearance means the volume of plasma or blood freed of the substance per unit of time. The term efflux ratio denotes a quotient of directional permeabilities that is used to spot active efflux. Usually IC50 stands for the midpoint of a concentration-inhibition curve. Broadly, the logD is lipophilicity at a set pH, counting ionised and neutral species. High values mean higher lipophilicity, low ones lower lipophilicity.

The molecule `C[C@@H](c1ccc(F)cc1)n1cc(-c2cc(F)cc3cn[nH]c23)c(=O)[nH]c1=O` [Compound 27, (S)-5-(5-Fluoro-1H-indazol-7-yl)-1-(1-(4-fluorophenyl)ethyl)pyrimidine-2,4(1H,3H)-dione] displayed a clearance in data set [1] of 74 mL/min/kg. Also, the “Hepatocytes Human” value in the data set with Human hepatocytes is listed as 1.81 μL/min/10^6 cells. Moreover, the RH with Rat hepatocytes (Table 3) was 14.8 μL/min/10^6 cells. Also, the “Hepatocytes Rat” value in the data set on Rat hepatocytes (Table 4) came to 14.8 μL/min/10^6 cells. For the same molecule, the efflux ratio at 2 h, 10 μM with P-gp (MDR1) is below 7. The “ADP-Glo assay LLE WT” value on WT c-MET [2] is 4.1.

Take `CC(c1ccccc1)n1cc(-c2cc(F)cc(F)c2)c(=O)[nH]c1=O` (centres unmarked) [Compound 2, 5-(3,5-Difluorophenyl)-1-(1-phenylethyl)pyrimidine-2,4(1H,3H)-dione]: at WT c-MET [3], the “competition with adenosine for binding to WT c-MET” value is recorded as “clear competition”. Further, the RH in the data set with Rat hepatocytes (Table 1) is 123 μL/min/10^6 cells. The “SPR assay LLE WT” value on WT c-MET [4] worked out at 2.4.

Regarding `C[C@@H](Oc1cc(-c2cnn(C3CCNCC3)c2)cnc1N)c1c(Cl)ccc(F)c1Cl` [crizotinib], the IC50 was […] in the data set on c-MET and […] with RON.

For `CC(c1ccc(F)cc1)n1cc(-c2cc(F)cc(F)c2)c(=O)[nH]c1=O` (centres unmarked) [Compound 6, 5-(3,5-Difluorophenyl)-1-(1-(4-fluorophenyl)ethyl)pyrimidine-2,4(1H,3H)-dione], the RH in the data set with Rat hepatocytes (Table 1) is 26.8 μL/min/10^6 cells. Further, on WT c-MET [4], the “SPR assay LLE WT” value worked out at 2.6. In the data set “Log D shake-flask method”, this molecule displayed a log distribution coefficient (logD) of 3.3.
